For 85 molecules, melting point results are on record in a melting point compilation (Tetko et al.; mined from patent text by program, amines drawn as free bases though some values may be those of a salt).

SMILES strings stand for the structures.

With `COC(=O)Cc1cn(-c2ccccc2)nc1OCc1ccc(OCc2nc(-c3ccccc3)oc2C)nc1`, the melting point (as a rule, the temperature of the solid-liquid transition) lay in the range of 96 to 97 °C.
`CCc1cc(NC(=O)c2cccs2)cc(CC)c1O` displayed a melting point of 190 to 192 °C.
`COc1cccc(C(O)CNC(=C[N+](=O)[O-])NCCCl)c1` (stereo not given): the melting point lay in the range of 127 to 130 °C.
`Brc1ccc2ccc3ccccc3c2n1` showed a melting point of 113 to 114 °C.
The value for `CCOC(=O)Oc1cc2occ(C(=O)Cl)c(=O)c2cc1OC(=O)OCC` was 89 to 92 °C; that for `CC1Cc2cccc(-c3cccc4ccccc34)c2C1=O` (stereo not given) was 104 to 105 °C.
The molecule `OCc1ccc(/C=C/c2ccncc2)cc1` came in with a melting point of 211 to 213 °C.
On to `Nc1cc(C(c2ccc([N+](=O)[O-])c(N)c2)(C(F)(F)F)C(F)(F)F)ccc1[N+](=O)[O-]`, for which the melting point fell in the range of 257 to 259 °C.
Next, `COc1ccc(Nc2nc(C)c(-c3nc4ccccc4c(=O)n3-c3ccc(Cl)cc3)s2)cc1`: above 275 °C; `Cc1cc(C)cc(-c2cnn3c(-c4cccc(-c5nnn(CC6CCC6)n5)c4)ccnc23)c1`: 64 °C.
Next, `CCCCN(C(C)=O)C1CC(C)(C)N(OC(=O)C(C)(C)C)C(C)(C)C1`: 81 to 94 °C.
Next, `Clc1ccc(C(CBr)OC2CCCC(COc3ccc(Cl)cc3Cl)O2)cc1` (stereo not given): 86 to 87 °C; `COc1cc(Nc2c(C#N)cnc3cc(C#Cc4cccnc4)sc23)c(Cl)cc1Cl`: 249 to 250 °C; `O=C(NCCN1CCCCC1)Nc1ccc(-c2nnc(CSCCOc3ccccc3)o2)cc1`: 126 to 128 °C.
For the molecule `CCSc1sc(C(=O)N2CCCC2)c2c1C(=O)CC(C)(C)C2`, the melting point lay in the range of 129 to 132 °C.
The value for `Cc1ccc2c(c1)c1cc(-c3ccc(O)cc3)c(=O)n(C)c1n2C` was above 280 °C; that for `COC(=O)C(NC(=S)n1nc(Oc2ncc(C(F)(F)F)cc2Cl)cc1C)C(C)C` (stereo not given) was 109 to 110 °C; that for `Nc1ccc(NC=C(S(=O)(=O)c2ccccc2)S(=O)(=O)c2ccccc2)nc1` was 172 to 174 °C.
Next, `CCN1CC(OCC2CCC2)(C(F)(F)F)c2cc(F)ccc2NC1=O` (stereo not given): 137 to 138 °C.
The value for `O=C(CS(=O)(=O)c1ccc(Cl)cc1C(=O)O)c1ccccc1` was 170 to 171 °C.
`CC(C)(C)NC(=O)[C@@H]1C[C@H](Cl)CN1C(=O)[C@@H](O)[C@H](Cc1ccccc1)NC(=O)[C@H](CC(N)=O)NC(=O)c1cc2cc(F)ccc2[nH]1` had a melting point of 141 to 143 °C.
Next, `COC=C(C#CCON=C(C)c1cccc(C(F)(F)F)c1)C(=O)OC`: 57 to 58 °C.
In turn, `O=[N+]([O-])c1c(-c2ccc(Cl)cc2)[nH]c(C(F)(F)F)c1-c1csc(Br)c1` came in with a melting point of 174 to 176 °C.
`CN(C(=O)OC(C)(C)C)c1cc(Oc2cccnc2)ccc1N` gave a melting point of 101 to 102 °C.
Molecule `O=C(N1CCCC1)C1(Cc2ccccc2)CCN(Cc2ccccc2)CC1` returned a melting point of 129 °C.
`Cc1ccc(C(=O)N[C@H](CSCC(=O)OC(C)(C)C)CC(C)C)s1` displayed a melting point of 81 to 83 °C.
The value for `CCOC(=O)/C=C(/c1ccc(OC)cc1)c1cc(Cl)cc(Cl)c1` was 116 to 118 °C.
The molecule `Nc1nc2[nH]c(CCCc3csc(C(=O)O)c3)cc2c(=O)[nH]1` came in with a melting point of 181 to 182 °C.
Next, `N#Cc1nn(-c2c(Cl)cc(C(F)(F)F)cc2Cl)c(N)c1-c1ccc(F)cc1`: 222 to 223 °C; `CCOC(=O)c1ccc2snnc2c1`: 74.5 to 77 °C.
As to `CCOC(=O)c1c(CN(CC)CC)nc2cc(OC)c(OC)cc2c1-c1ccc(OC)cc1`, the melting point lay within 118 to 119 °C.
Take `CCc1cn(C2OC(CN=[N+]=[N-])C(O)C2F)c(=O)[nH]c1=O` (stereo not given): the melting point is 185 to 188 °C.
The value for `C[C@@H](Nc1ncnc2[nH]c(-c3ccc(CN4CCNCC4)cc3)cc12)c1ccccc1` was 240 to 242 °C.
`NC(=NC(=O)c1nc(Cl)c(N)nc1N)NCCCCCCCCCCCC(=O)Nc1ncc[nH]1` returned a melting point of 102 to 104 °C.
The value for `O=C(Nc1cccc2c(-n3ccnc3)c(CO)cnc12)c1c(Cl)cccc1Cl` was 205 to 207 °C; that for `COC(=O)c1ccc(-c2ccc(C(CC3CCOCC3)c3ccc(S(=O)(=O)C4CC4)cc3)[nH]2)nc1` (stereo not given) was 150 to 152 °C; that for `O=C(O)CCCc1c(Cl)cccc1-c1ccccc1` was 74 to 76 °C.
Consider `O=C(c1ccccc1)C1OC1c1ccccc1Cl` (stereo not given), for which the melting point was determined as 132 °C.
`CN(c1cccc2cc(C(=O)NCC3(SCc4ccccc4)CCN(C(=O)OC(C)(C)C)CC3)[nH]c12)S(=O)(=O)c1cccs1`: the melting point lay within 195 to 197 °C.
Consider `CC(C)Oc1nc(CO)sc1C(=O)NCc1ccc(Cl)cc1Cl`, for which the melting point is 127 to 128 °C.
Next, `O=C1CCCc2c1c1cccc3c1n2CC3`: 208 to 210 °C; `N#Cc1cnc2c(sc3ccccc32)c1Nc1ccc(Oc2ccccc2)cc1`: 230 to 233 °C; `COc1ccc(-c2nc(S(=O)(=O)C(C)C)[nH]c2-c2ccncc2)cc1`: 262 to 266 °C.
With `CCOC1CCN(c2nnc(-c3ccc(C)cc3)c(-c3ccc(C)cc3)n2)CC1`, the melting point is 124 to 126 °C.
Next, `CCN(CC)c1ccc(C2(c3ccc(N(CC)CC)cc3N(CC)CC)OC(=O)c3c(Cl)c(Cl)c(Cl)c(Cl)c32)cc1` (stereo not given): 196 to 197 °C; `CCCCCCCCCCCCCCCCCC(=O)NCCOCCn1c(CCOC)nc2c(N)nc3ccccc3c21`: 80 to 83 °C.
In turn, `CN(c1ccc(OC(F)(F)F)cc1)c1cc(C(F)(F)F)nc(NN=Cc2ccc(OC(F)(F)F)cc2)n1` displayed a melting point of 180 to 182 °C.
Next, `Cn1c(COc2ccc(CC(OCc3ccc(F)cc3)C(=O)O)cc2)nc2ccc(Oc3ccc(C45CC6CC(CC(C6)C4)C5)cc3)cc21` (stereo not given): 148 to 149 °C.
Next, `C[C@@H](NC(=O)c1ccc(-c2cc(C(F)(F)F)nn2C)s1)[C@](O)(Cn1cncn1)c1ccc(F)cc1F`: 106 to 110 °C; `O=C(COc1ccccc1)NCCc1ccc(S(=O)(=O)NC(=O)c2ccc(C(=O)NCCO)nc2)cc1`: 155 to 156 °C; `O=C(O)CCCN1c2ccccc2Sc2ccc(Cl)cc21`: 142 to 144 °C.
The value for `CN[C@@H](CO)Cc1ccccc1` was 69 °C; that for `C[C@@H]1Cc2ccsc2[C@H](C)N1CCNC(=O)c1ccc(NS(=O)(=O)c2ccc(Cl)cc2)cc1` (relative stereo) was 107 to 111 °C.
Consider `COc1cc(OC)cc(-c2cc(NC(=O)CC(=O)C(F)(F)F)[nH]n2)c1`, for which the melting point lay in the range of 119 to 121 °C.
On to `CCOC(=O)c1cc(=O)c2ccc(OS(=O)(=O)c3ccc(C)cc3)c([N+](=O)[O-])c2o1`, for which the melting point stood at 125 °C.
For the molecule `CCC(=O)Nc1nn(C)c2c1sc1ccccc12`, the melting point lay within 88 to 89 °C.
The value for `CN(C)C1CSC(C#N)(c2ccc(Cl)cc2)SC1` (stereo not given) was 110 to 111 °C; that for `CCOC(=O)c1sc2cc(OCc3cccnc3)ccc2c1Sc1ccccc1` was 94 to 95 °C.
Molecule `O=[N+]([O-])c1cc(-c2nc3n(c2Cl)CCCC3)c(Cl)cc1Cl` came in with a melting point of 111 to 112 °C.
The value for `CCCCCc1c(C(C)C)nc(C(C)C)c(CNC)c1-c1ccc(F)cc1` was 77 to 79 °C; that for `CCCCCC(O)CNCCCCCCCCNCC(O)CCCCC` (stereo not given) was 128 to 133 °C.
Regarding `N=c1ccccn1Cc1ccccc1`, the melting point lay in the range of 52 to 54 °C.
Next, `CC(C)COc1c(-c2ccc(S(C)(=O)=O)cc2)cnn(-c2cccc(Cl)c2)c1=O`: 166 to 169 °C.
With `CCCn1c(=O)c2[nH]c(-c3cc(C)n(CC(=O)Nc4cccc(Cl)c4)n3)nc2n(CCC)c1=O`, the melting point fell in the range of 304 to 307 °C.
For `COc1c(C(C)(C)C)cc(C(N)=O)cc1C(C)(C)C`, the melting point was 239 to 243 °C.
Molecule `CCOc1cc2ncc(C#N)c(Nc3ccc(F)c(Cl)c3)c2cc1OCC` yielded a melting point of 194 to 198 °C.
On to `Cc1ccc(COc2cccc(C(=O)Nc3ccc(CN4CCCCC4)cc3)c2)cc1`, for which the melting point was in the range of 153 to 155 °C.
Take `CC(C)c1cc(C(=O)Nc2ccc(C(=O)O)c(O)c2)oc1C(C)C`: the melting point was 179 to 180 °C.
Next, `Cc1nc2ccccc2n1C`: 102 °C.
The value for `Nc1nc2c(nc(Br)n2Cc2ccc(Cl)cc2)c(=O)[nH]1` was above 300 °C.
The value for `COc1ccc(C2(C)C=C(Cl)N=CN2)cc1` (stereo not given) was 65 to 67 °C; that for `Cc1noc(-c2sc(N3CCN(Cc4ccc(C(F)(F)F)cc4)C3=O)nc2C)n1` was 163 to 164 °C; that for `O=C(O)/C(=C/c1cnc(-c2ccccc2)n1Cc1ccccc1Cl)Cc1ccccc1` was 211 to 213 °C.
Molecule `Cc1c(C)c2c(c3c1NCC3)CC(C)(C)O2` showed a melting point of 107 to 109 °C.
The molecule `O=C(O)c1cc(C(F)(F)F)cc(S(=O)(=O)Cc2ccccc2)c1` displayed a melting point of 184 to 186 °C.
Regarding `CC(C)NCC(O)COc1ccc(-c2cc3ncccc3c(=O)n2C)cc1` (stereo not given), the melting point is 135 to 139 °C.
The value for `CNC(=O)C1(CCCCCCCCCCCCC2(C(=O)NS(C)(=O)=O)CC2)CC1` was 111 to 112 °C; that for `Cc1cc(O)nc(Br)c1` was 152 °C.
Next, `COC(=O)CCc1ccc(-n2cnn(CCC3CCN(C(=O)OC(C)(C)C)CC3)c2=O)cc1`: 139 to 141 °C.
The value for `COC(=O)NC(=O)n1cc(C(=O)c2ccn3c2CSC3c2cccnc2)c2ccc(OCc3ccccc3)cc21` (stereo not given) was 152 to 153 °C; that for `CN(C)C=Nc1ncc(-c2ccc(C(F)(F)F)cc2)cc1C(F)(F)F` was 114 °C.
In turn, `Cc1oc(C(N)=O)c(C)c1-c1nc2ccc(Oc3ccccc3)cc2[nH]1` yielded a melting point of 248 to 251 °C.
The molecule `CC(COc1ccc2c(c1)CCCC2=O)n1ccnc1` (stereo not given) had a melting point of 132 to 135 °C.
The value for `Cc1ccc(S(=O)(=O)OCCCC(O)c2cccc3c(=O)c(C)c(-c4ccccc4)oc23)cc1` (stereo not given) was 123 to 124 °C; that for `CC1CC(=O)NN=C1c1ccc2c(c1)NCC(c1ccccc1)N2` (stereo not given) was 209 to 215 °C.
